Laboratory results as given in patent US6737383B1, “Herbicidal oxadiazolidines” (priority 1999, dated 2004).

Tests used:
wild oat = assay: Test B pre/postemergence wild oat; format: in vivo, Avena fatua
Procedure, shortened: (§1)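 Herbicidal effect was estimated by eye on a ten-point control scale after plants spent twelve to sixteen days in a greenhouse following soil or foliar treatment. Foliar sprays targeted plants at one to four leaves; all doses were formulated in a non-phytotoxic solvent with surfactant.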

morningglory = assay: Test B pre/postemergence morningglory; format: in vivo, Ipomoea hederacea
Procedure, shortened: as §1

surinam grass = assay: Test B pre/postemergence surinam grass; format: in vivo, Brachiaria decumbens
Procedure, shortened: as §1

duck salad = assay: Test B flood test duck salad; format: in vivo, Heteranthera limosa
Procedure, shortened: (§2)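 Flood test on plants grown to the 2-leaf stage; treated plants kept in greenhouse twelve to sixteen days, then visually rated against controls on a 0 (no effect) to 10 (complete control) scale.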

rice = assay: Test B flood test rice; format: in vivo, Oryza sativa
Procedure, shortened: as §2

bedstraw = assay: Test B pre/postemergence bedstraw; format: in vivo, Galium aparine
Procedure, shortened: as §1

sugar beet = assay: Test B pre/postemergence sugar beet; format: in vivo, Beta vulgaris
Procedure, shortened: as §1

pigweed = assay: Test B pre/postemergence pigweed; format: in vivo, Amaranthus retroflexus
Procedure, shortened: as §1

soybean = assay: Test B pre/postemergence soybean; format: in vivo, Glycine max
Procedure, shortened: as §1

corn = assay: Test B pre/postemergence corn; format: in vivo, Zea mays
Procedure, shortened: as §1

bamyardgrass = assay: Test B flood test barnyardgrass; format: in vivo, Echinochloa crus-galli
Procedure, shortened: as §2

wheat = assay: Test B pre/postemergence wheat; format: in vivo, Triticum aestivum
Procedure, shortened: as §1

crabgrass = assay: Test B pre/postemergence crabgrass; format: in vivo, Digitaria sanguinalis
Procedure, shortened: as §1

rape = assay: Test B pre/postemergence rape; format: in vivo, Brassica napus
Procedure, shortened: as §1

smallflower flatsedge = assay: Test B flood test smallflower flatsedge; format: in vivo, Cyperus difformis
Procedure, shortened: as §2

purple nutsedge = assay: Test B pre/postemergence purple nutsedge; format: in vivo, Cyperus rotundus
Procedure, shortened: as §1

giant foxtail = assay: Test B pre/postemergence giant foxtail; format: in vivo, Setaria faberii
Procedure, shortened: as §1

velvetleaf = assay: Test B pre/postemergence velvetleaf; format: in vivo, Abutilon theophrasti
Procedure, shortened: as §1

blackgrass = assay: Test B pre/postemergence blackgrass; format: in vivo, Alopecurus myosuroides
Procedure, shortened: as §1

cocklebur = assay: Test B pre/postemergence cocklebur; format: in vivo, Xanthium strumarium
Procedure, shortened: as §1

[1] = Preemergence, Rate 62 g/ha, scale of 0 to 10 where 0 is no effect and 10 is complete control
[2] = Preemergence, Rate 250 g/ha, scale 0 to 10, 0 is no effect, 10 is complete control
[3] = Rate 125 g/ha, Postemergence, scale 0 to 10
[4] = Preemergence, Rate 125 g/ha, 0 is no effect, 10 is complete control
[5] = Rate 62 g/ha, Postemergence, scale of 0 to 10 where 0 is no effect and 10 is complete control
[6] = Rate 62 g/ha, headed Pre-emergence (flood test species), scale 0 to 10 (0 no effect, 10 complete control)
[7] = Rate 125 g/ha, Pre-emergence, flood test species, scale 0 to 10 where 0 is no effect and 10 is complete control
[8] = Rate 250 g/ha, Pre-emergence, flood-test species, scale 0 to 10, 0 is no effect, 10 is complete control
[9] = Rate 500 g/ha, headed Pre-emergence (flood test species), scale 0 to 10 (0 no effect, 10 complete control)

SMILES: Cc1ccccc1-n1c(=O)on(C(=O)N(c2ccc(F)cc2Cl)C(C)C)c1=O [Compound 186]
- Wild oats plant response rating (wild oat; [1]): 0
- Wild oats plant response rating (wild oat; [2]): 0
- Wild oats plant response rating (wild oat; [3]): 0
- Plant response rating (0 to 10; 0 is no effect, 10 is complete control), Wild oats (wild oat; Rate 250 g/ha, Postemergence): 0
- Morningglory plant response rating (morningglory; [1]): 0
- Morningglory plant response rating (0 to 10 scale) (morningglory; [4]): 0
- Morningglory plant response rating (morningglory; [2]): 0
- Morningglory plant response rating (morningglory; [5]): 1
- Morningglory plant response rating (morningglory; [3]): 2
- Plant response rating (0 to 10; 0 is no effect, 10 is complete control), Morningglory (morningglory; Rate 250 g/ha, Postemergence): 2
- B. signalgrass plant response rating (surinam grass; [1]): 0
- B. signalgrass plant response rating (0 to 10 scale) (surinam grass; [4]): 0
- B. signalgrass plant response rating (surinam grass; [2]): 0
- B. signalgrass plant response rating (surinam grass; [5]): 0
- B. signalgrass plant response rating (surinam grass; Rate 125 g/ha, Postemergence, scale 0 (no effect) to 10 (complete control)): 0
- Plant response rating, B. signalgrass (surinam grass; Rate 250 g/ha, Postemergence, scale 0 to 10, 0 is no effect, 10 is complete control): 0
- Ducksalad plant response rating (duck salad; [6]): 0
- Ducksalad plant response rating (duck salad; [7]): 0
- Ducksalad plant response rating (duck salad; [8]): 0
- Plant response rating, Ducksalad (duck salad; [9]): 0
- Rice plant response rating (rice; [6]): 0
- Rice plant response rating (rice; [7]): 0
- Rice plant response rating (rice; [8]): 0
- Plant response rating, Rice (rice; [9]): 0
- Bedstraw plant response rating (bedstraw; [1]): 0
- Bedstraw plant response rating (0 to 10 scale) (bedstraw; [4]): 0
- Bedstraw plant response rating (bedstraw; [2]): 0
- Bedstraw plant response rating (bedstraw; [5]): 0
- Bedstraw plant response rating (bedstraw; [3]): 0
- Plant response rating (0 to 10; 0 is no effect, 10 is complete control), Bedstraw (bedstraw; Rate 250 g/ha, Postemergence): 8
- Sugarbeets plant response rating (sugar beet; [1]): 0
- Sugarbeets plant response rating (0 to 10 scale) (sugar beet; [4]): 0
- Sugarbeets plant response rating (sugar beet; [2]): 0
- Sugarbeets plant response rating (sugar beet; [5]): 0
- Sugarbeets plant response rating (sugar beet; [3]): 0
- Plant response rating (0 to 10; 0 is no effect, 10 is complete control), Sugarbeets (sugar beet; Rate 250 g/ha, Postemergence): 0
- Redroot pigweed plant response rating (pigweed; [1]): 0
- Redroot pigweed plant response rating (0 to 10 scale) (pigweed; [4]): 0
- Redroot pigweed plant response rating (pigweed; [2]): 2
- Redroot pigweed plant response rating (pigweed; [5]): 0
- Redroot pigweed plant response rating (pigweed; [3]): 0
- Plant response rating (0 to 10; 0 is no effect, 10 is complete control), Redroot pigweed (pigweed; Rate 250 g/ha, Postemergence): 0
- Soybean plant response rating (soybean; [1]): 0
- Soybean plant response rating (0 to 10 scale) (soybean; [4]): 0
- Soybean plant response rating (soybean; [2]): 0
- Soybean plant response rating (soybean; [5]): 1
- Soybean plant response rating (soybean; [3]): 1
- Plant response rating (0 to 10; 0 is no effect, 10 is complete control), Soybean (soybean; Rate 250 g/ha, Postemergence): 2
- Corn plant response rating (corn; [1]): 0
- Corn plant response rating (0 to 10 scale) (corn; [4]): 0
- Corn plant response rating (corn; [2]): 0
- Corn plant response rating (corn; [5]): 0
- Corn plant response rating (corn; [3]): 0
- Plant response rating (0 to 10; 0 is no effect, 10 is complete control), Corn (corn; Rate 250 g/ha, Postemergence): 0
- Barnyardgrass plant response rating (bamyardgrass; [6]): 0
- Barnyardgrass plant response rating (bamyardgrass; [7]): 0
- Barnyardgrass plant response rating (bamyardgrass; [8]): 0
- Plant response rating, Barnyardgrass (bamyardgrass; [9]): 0
- Wheat plant response rating (wheat; [1]): 0
- Wheat plant response rating (wheat; [2]): 0
- Wheat plant response rating (wheat; [3]): 0
- Plant response rating (0 to 10; 0 is no effect, 10 is complete control), Wheat (wheat; Rate 250 g/ha, Postemergence): 0
- Crabgrass plant response rating (crabgrass; [1]): 2
- Crabgrass plant response rating (0 to 10 scale) (crabgrass; [4]): 6
- Crabgrass plant response rating (crabgrass; [2]): 6
- Crabgrass plant response rating (crabgrass; [5]): 0
- Crabgrass plant response rating (crabgrass; [3]): 0
- Plant response rating (0 to 10; 0 is no effect, 10 is complete control), Crabgrass (crabgrass; Rate 250 g/ha, Postemergence): 2
- Rape plant response rating (rape; [1]): 0
- Rape plant response rating (0 to 10 scale) (rape; [4]): 0
- Rape plant response rating (rape; [2]): 0
- Rape plant response rating (rape; [5]): 0
- Rape plant response rating (rape; [3]): 0
- Plant response rating (0 to 10; 0 is no effect, 10 is complete control), Rape (rape; Rate 250 g/ha, Postemergence): 0
- S. Flatsedge plant response rating (smallflower flatsedge; [6]): 0
- S. Flatsedge plant response rating (smallflower flatsedge; [7]): 0
- S. Flatsedge plant response rating (smallflower flatsedge; [8]): 0
- S. Flatsedge plant response rating (smallflower flatsedge; Rate 500 g/ha, Pre-emergence, flood test species, scale 0 to 10 (0 no effect, 10 complete control)): 0
- Nutsedge plant response rating (purple nutsedge; [1]): 0
- Nutsedge plant response rating (0 to 10 scale) (purple nutsedge; [4]): 0
- Nutsedge plant response rating (purple nutsedge; [5]): 0
- Nutsedge plant response rating (purple nutsedge; [3]): 0
- Plant response rating (0 to 10; 0 is no effect, 10 is complete control), Nutsedge (purple nutsedge; Rate 250 g/ha, Postemergence): 2
- Giant foxtail plant response rating (giant foxtail; [1]): 5
- Giant foxtail plant response rating (0 to 10 scale) (giant foxtail; [4]): 9
- Giant foxtail plant response rating (giant foxtail; [2]): 9
- Giant foxtail plant response rating (giant foxtail; [5]): 0
- Giant foxtail plant response rating (giant foxtail; [3]): 0
- Plant response rating (0 to 10; 0 is no effect, 10 is complete control), Giant foxtail (giant foxtail; Rate 250 g/ha, Postemergence): 0
- Velvetleaf plant response rating (velvetleaf; [1]): 0
- Velvetleaf plant response rating (velvetleaf; [2]): 2
- Velvetleaf plant response rating (velvetleaf; [3]): 0
- Plant response rating (0 to 10; 0 is no effect, 10 is complete control), Velvetleaf (velvetleaf; Rate 250 g/ha, Postemergence): 0
- Blackgrass plant response rating (blackgrass; [1]): 0
- Blackgrass plant response rating (0 to 10 scale) (blackgrass; [4]): 0
- Blackgrass plant response rating (blackgrass; [2]): 3
- Blackgrass plant response rating (blackgrass; [5]): 0
- Blackgrass plant response rating (blackgrass; [3]): 0
- Plant response rating (0 to 10; 0 is no effect, 10 is complete control), Blackgrass (blackgrass; Rate 250 g/ha, Postemergence): 4
- Cocklebur plant response rating (cocklebur; [1]): 0
- Cocklebur plant response rating (0 to 10 scale) (cocklebur; [4]): 0
- Cocklebur plant response rating (cocklebur; [2]): 0
- Cocklebur plant response rating (cocklebur; [5]): 0
- Cocklebur plant response rating (cocklebur; [3]): 0
- Plant response rating (0 to 10; 0 is no effect, 10 is complete control), Cocklebur (cocklebur; Rate 250 g/ha, Postemergence): 0
